From patent US20030068802A1, “Use of streptococcus pneumoniae acyl carrier protein synthase crystal structure in diagnostics, antimicrobial drug design, and biosensors” (priority 2000, published 2003)

Key:
[1] = target: T1, purified AcpS of S. pneumoniae (Streptococcus pneumoniae, UniProt P0A2W7); assay: HPLC-based AcpS enzyme assay (conversion of apo-ACP to holo-ACP); assay type: biochemical; conditions: for Ki: 3.7 nM AcpS; for relative activity as substrate of AcpS: CoA = 100, 1.5 μM apo-ACP, 20 μM CoA or CoA derivative, 19 nM AcpS
T1 construct: made in house; host or cells: E. coli BL21 (pLysS)/pRBP-19 (pET-11a)
T1 sequence (P0A2W7 1-120): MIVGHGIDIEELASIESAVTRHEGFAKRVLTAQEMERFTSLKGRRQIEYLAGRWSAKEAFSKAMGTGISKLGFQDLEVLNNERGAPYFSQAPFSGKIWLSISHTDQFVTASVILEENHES
Procedure: (§1) Unless otherwise indicated, reaction mixtures contain 50 mM Tris-HCl, pH 7.0, 10 mM MgCl2, 2.5-50 μM CoA, 0.25-6.0 μM purified apo-ACP of S. pneumoniae, and 3.7 nM purified AcpS of S. pneumoniae, and are incubated at 37° C. for 9 min. Reactions are stopped by the addition of 50 mM EDTA. The formation of holo-ACP is determined by an HPLC or a trichloroacetic acid (TCA) precipitation method (see below). An HPLC-based assay is adapted from the method described previously (Lambalot and Walsh, 1997). This assay monitors the conversion of apo-ACP to holo-ACP. Reaction mixtures (100 μl each) are injected into an analytical HPLC column (Vydac protein C4 reverse-phase; P. J. Cobert Associates, Inc., St. Louis, Mo.) equilibrated with 45% acetonitrile in 0.1% trifluoroacetic acid. The column is eluted with an 8 ml linear gradient of 45-80% acetonitrile. The column elution profiles are monitored at 220 nm. Under these conditions, holo-ACP migrates faster than apo-ACP. The amount of holo-ACP formed is estimated by comparing the peak area of the holo-ACP formed with those of both apo- and holo-ACP.
(§2) To examine the substrate specificity of AcpS, a variety of CoA derivatives (acetyl-CoA, malonyl-CoA, acetoacetyl-CoA, desulfo-CoA, and dephospho-CoA) are tested. All reaction mixtures contain 1.5 μM apo-ACP, 20 μM CoA or CoA derivative, and 19 nM AcpS, and the formation of holo-ACP is determined by the HPLC method.
For the determination of Km and Vmax (kcat) of AcpS for apo-ACP, reaction mixtures (in quadruplicate) contain 20 μM CoA, 0.25 to 100 μM apo-ACP, and 3.7 nM. AcpS. The formation of holo-ACP is measured by the HPLC method or the TCA precipitation method. To determine Km for CoA, the reaction conditions are the same as those described above except that the concentration of apo-ACP is 2.0 μM, and the concentrations of CoA were 5 to 600 μM. […]
To evaluate the inhibition of AcpS activity by 3′,5′-ADP with respect to CoA, reaction mixtures contain 1-60 μM 3′,5′-ADP, 2.5-60 μM CoA, 1.0 μM apo-ACP, and 3.7 nM AcpS. To evaluate the inhibition of AcpS activity by 3′,5′-ADP with respect to apo-ACP, reaction mixtures contain 1-60 μM 3′,5′-ADP, 0.5-6.0 μM apo-ACP, 20 μM CoA, and 3.7 nM AcpS. The formation of holo-ACP is analyzed by the HPLC method.

[2] = target: T1, purified AcpS of S. pneumoniae; assay: Substrate binding to AcpS by gel filtration column chromatography, mass spectrometry and filter binding; conditions: 27 μM AcpS, 10 mM MgCl2, 100 μM apo-ACP or 50 μM CoA, room temperature 30 min
Procedure: To determine whether AcpS binds directly to apo-ACP or CoA in the absence of the other substrate, a purified AcpS preparation (27 μM) is first mixed with 10 mM MgCl2, and then either 100 μM apo-ACP or 50 μM CoA. The mixture is incubated at room temperature for 30 min and subjected to gel filtration column chromatography (S-75 Superdex) under the conditions described above. The fractions containing the AcpS-apo-ACP complex and unbound apo-ACP are analyzed by SDS-PAGE (16% tricine gels), SYPRO Orange staining, and mass spectrometry.
The order of substrate binding to AcpS can be analyzed by determining the binding of CoA and apo-ACP to purified AcpS by gel filtration column chromatography, mass spectrometry, or filter binding assays. If CoA binds to AcpS first and forms an enzyme-substrate complex that is required for the next reaction with apo-ACP, then a stable enzyme-substrate complex should be detectable. […]
Whether apo-ACP binds to AcpS in the absence of CoA, a mixture of AcpS and apo-ACP (apo-ACP/AcpS=5:1) can be subjected to gel filtration column chromatography and analysis of the column fractions by SDS-PAGE. […] Consistent with the formation of the AcpS-apo-ACP complex, the presence of apo-ACP is also detected in the fractions containing purified AcpS (FIG. 2B). […]

[3] = substrate: CC(C)(COP(=O)(O)OP(=O)(O)OC[C@H]1O[C@@H](n2cnc3c(N)ncnc32)[C@H](O)[C@@H]1OP(=O)(O)O)[C@@H](O)C(=O)NCCC(=O)NCCS; assay: TCA precipitation AcpS assay ([3H]CoA incorporation into apo-ACP); assay type: biochemical, Streptococcus pneumoniae; conditions: other: TCA precipitation method
Procedure: AcpS activity is also assayed by using a TCA precipitation method (Lambalot and Walsh, 1995). This method measures the incorporation of the 3H-labeled 4′-phospho-pantotheine group from [^3H]CoA into apo-ACP. Reaction conditions are the same as those described for the HPLC assay, except that [^3H]COA (specific activity, 1.5 Ci/mmol, NEN Life Science Products, Boston, Mass.) is used alone or in combination with CoA. Reactions are stopped by the addition of 0.9 ml of cold 10% TCA followed by 37 μg of bovine serum albumin (BSA). Precipitated protein is collected by centrifugation (a microfuge at 14,000 rpm) for 5 min and washed twice with ice-cold 10% TCA. The protein collected is resuspended in 150 μl of 1M Tris base and 0.1% Triton X-100. The resulting suspension (100 μl) is mixed with 2.5 ml of Ready Protein+scintillation fluid (Beckman, Fullerton, Calif.), and counted using an LS 60001C scintillation counter (Beckman).
For the determination of Km and Vmax (kcat) of AcpS for apo-ACP, reaction mixtures (in quadruplicate) contain 20 μM CoA, 0.25 to 100 μM apo-ACP, and 3.7 nM. AcpS. The formation of holo-ACP is measured by the HPLC method or the TCA precipitation method. To determine Km for CoA, the reaction conditions are the same as those described above except that the concentration of apo-ACP is 2.0 μM, and the concentrations of CoA were 5 to 600 μM.

[4] = substrate: CC(C)(COP(=O)(O)OP(=O)(O)OC[C@H]1O[C@@H](n2cnc3c(N)ncnc32)[C@H](O)[C@@H]1OP(=O)(O)O)[C@@H](O)C(=O)NCCC(=O)NCCS; assay: HPLC-based AcpS enzyme assay (conversion of apo-ACP to holo-ACP); assay type: biochemical, Streptococcus pneumoniae; conditions: other: fixed apo-ACP 2 μM, various CoA, HPLC method; pH 7.0; 37.0 °C
Procedure: as §1, with “The amount of holo-ACP formed is estimated by comparing the peak area of the holo-ACP formed with those of both apo- and holo-ACP.” left out
as §2, with “method. […]” for “method.”

[5] = target: Streptococcus pneumoniae apo-acyl carrier protein (apo-ACP)

## Nc1ncnc2c1ncn2[C@@H]1O[C@H](COP(=O)(O)O)[C@@H](OP(=O)(O)O)[C@H]1O [3′,5′-ADP, 3′,5′-adenosine diphosphate]
[1]; inhibition of AcpS activity with respect to CoA, various CoA concentrations, fixed apo-ACP 1.0 μM, Dixon plot FIG. 7C
  Ki: 6 µM
[1]; inhibition of AcpS activity with respect to apo-ACP, various apo-ACP concentrations, fixed CoA 20 μM, Dixon plot FIG. 7D
  Ki: 2.5 µM
[1]; various CoA, fixed apo-ACP
  pattern of inhibition with respect to CoA (double reciprocal plots): simple competitive pattern
[1]; various apo-ACP, fixed CoA
  pattern of inhibition with respect to apo-ACP (double reciprocal plots): linear-mixed pattern

## CC(C)(COP(=O)(O)OP(=O)(O)OC[C@H]1O[C@@H](n2cnc3c(N)ncnc32)[C@H](O)[C@@H]1OP(=O)(O)O)[C@@H](O)C(=O)NCCC(=O)NCCS [CoA, Coenzyme A]
[2]
  binding to AcpS in the absence of the other substrate: does not appear to bind
[1]
  relative activity as substrate of AcpS: 100

## CC(=O)CC(=O)SCCNC(=O)CCNC(=O)[C@H](O)C(C)(C)COP(=O)(O)OP(=O)(O)OC[C@H]1O[C@@H](n2cnc3c(N)ncnc32)[C@H](O)[C@@H]1OP(=O)(O)O [acetoacetyl-CoA]
[1]
  relative activity as substrate of AcpS: 65

## CC(=O)SCCNC(=O)CCNC(=O)[C@H](O)C(C)(C)COP(=O)(O)OP(=O)(O)OC[C@H]1O[C@@H](n2cnc3c(N)ncnc32)[C@H](O)[C@@H]1OP(=O)(O)O [acetyl-CoA]
[1]
  relative activity as substrate of AcpS: 91

## CC(C)(COP(=O)(O)OP(=O)(O)OC[C@H]1O[C@@H](n2cnc3c(N)ncnc32)[C@H](O)[C@@H]1O)[C@@H](O)C(=O)NCCC(=O)NCCS [dephospho-CoA]
[1]
  relative activity as substrate of AcpS: 0

## CCNC(=O)CCNC(=O)[C@H](O)C(C)(C)COP(=O)(O)OP(=O)(O)OC[C@H]1O[C@@H](n2cnc3c(N)ncnc32)[C@H](O)[C@@H]1OP(=O)(O)O [desulfo-CoA]
[1]
  relative activity as substrate of AcpS: 76

## CC(C)(COP(=O)(O)OP(=O)(O)OC[C@H]1O[C@@H](n2cnc3c(N)ncnc32)[C@H](O)[C@@H]1OP(=O)(O)O)[C@@H](O)C(=O)NCCC(=O)NCCSC(=O)CC(=O)O [malonyl-CoA]
[1]
  relative activity as substrate of AcpS: 12

B1: purified AcpS of S. pneumoniae (Streptococcus pneumoniae R6) (protein)
chain: MIVGHGIDIEELASIESAVTRHEGFAKRVLTAQEMERFTSLKGRRQIEYLAGRWSAKEAFSKAMGTGISKLGFQDLEVLNNERGAPYFSQAPFSGKIWLSISHTDQFVTASVILEENHES
notes: made in house; host or cells: E. coli BL21 (pLysS)/pRBP-19 (pET-11a)
[3]
  Km: 7.1 ± 0.4 µM
[4]
  Km: 11.5 ± 0.9 µM
[5]
  Km (for apo-ACP), HPLC assay of holo-ACP formation, high apo-ACP concentrations: 109 ± 6.8 µM
  Km (for apo-ACP), HPLC assay of holo-ACP formation, low apo-ACP concentrations: 0.5 µM
  apparent Km for apo-ACP, TCA precipitation assay with [3H]CoA: 1.3 µM
  fold decrease of affinity (Km) at high versus low apo-ACP concentrations: approximately 200-fold
